According to ChEMBL document CHEMBL1201862, “PubChem BioAssay data set” (2004):
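In this assay, cells in 96-well plates receive the compound at five concentrations for 48 hours. Endpoints are linearly interpolated between the surrounding concentrations. Here, GI50 denotes the concentration required for 50% inhibition of growth.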 Activity calls are given as the source filed them. Cut-off read from the data, not from the text of the source: active = GI50 up to about 1.1 µM and inactive = higher.

Key:
Experiment in all cases: NCI-60 cell line screen, 48 h
SK-MEL-5 = system: SK-MEL-5
RXF 393 = system: RXF 393
SK-MEL-2 = system: SK-MEL-2
OVCAR-4 = system: OVCAR-4
SR = system: SR
KM12 = system: KM12
IGROV-1 = system: IGROV-1
HOP-62 = system: HOP-62
TK-10 = system: TK-10
HOP-92 = system: HOP-92
SF-268 = system: SF-268
SF-295 = system: SF-295
PC-3 = system: PC-3
UO-31 = system: UO-31
NCI-H226 = system: NCI-H226
CCRF-CEM = system: CCRF-CEM
T47D = system: T47D
NCI-H23 = system: NCI-H23
MOLT-4 = system: MOLT-4
RPMI-8226 = system: RPMI-8226

Row | Compound | GI50 (SK-MEL-5) | GI50 (RXF 393) | GI50 (SK-MEL-2) | GI50 (OVCAR-4) | GI50 (SR) | GI50 (KM12) | GI50 (IGROV-1) | GI50 (HOP-62) | GI50 (TK-10) | GI50 (HOP-92) | GI50 (SF-268) | GI50 (SF-295) | GI50 (PC-3) | GI50 (UO-31) | GI50 (NCI-H226) | GI50 (CCRF-CEM) | GI50 (T47D) | GI50 (NCI-H23) | GI50 (MOLT-4) | GI50 (RPMI-8226)
1 | OC(CCN1CCN(CCOC(c2ccc(F)cc2)c2ccc(F)cc2)CC1)c1ccc(Br)cc1 (stereo not given) | 1.69 µM (inactive) | 3.94 µM (inactive) | 5.36 µM (inactive) | 4.01 µM (inactive) | 2.34 µM (inactive) | 2.44 µM (inactive) | 4.57 µM (inactive) | 6.12 µM (inactive) | 6.76 µM (inactive) | 4.37 µM (inactive) | 4.76 µM (inactive) | 4.62 µM (inactive) | 4.83 µM (inactive) | 2.22 µM (inactive) | 5.7 µM (inactive) | 2.77 µM (inactive) | 3.05 µM (inactive) | 6.75 µM (inactive) | 2.4 µM (inactive) | 2.67 µM (inactive)
2 | COC(=O)c1c(O)ccc2c1c1cc3ccccc3cc1n2Cc1cc(OC)cc(OC)c1 | 1.34 µM (inactive) | 3.96 µM (inactive) | 1.22 µM (inactive) | 9.84 µM (inactive) | 1.04 µM (active) | 0.805 µM (active) | 0.678 µM (active) | 3.23 µM (inactive) | > 23.2 µM (inactive) | 11.7 µM (inactive) | 2.75 µM (inactive) | 1.11 µM (active) | 2.46 µM (inactive) | 3.17 µM (inactive) | 14.9 µM (inactive) | 1.66 µM (inactive) | 3.06 µM (inactive) | 4.53 µM (inactive) | 21.7 µM (inactive) | 1.96 µM (inactive)
3 | COc1ccc2c3c1OC1C(=O)C=CC4(O)C(C2)NCC[C@@]314 (stereo not given in full) | 4.16 µM (inactive) | 1.39 µM (inactive) | 2.4 µM (inactive) | 2.62 µM (inactive) | 1.76 µM (inactive) | 2.84 µM (inactive) | 5.71 µM (inactive) | 2.39 µM (inactive) | 1.68 µM (inactive) | 5.26 µM (inactive) | 2.07 µM (inactive) | 3.69 µM (inactive) | 3.3 µM (inactive) | 2.1 µM (inactive) | 8.75 µM (inactive) | 0.574 µM (active) | 0.968 µM (active) | 2.03 µM (inactive) | 1.28 µM (inactive) | 1.12 µM (inactive)
4 | CC(C)(C)C1CCC2(CC1)CCN(CCCN1CCOCC1)CC2 | 8.05 µM (inactive) | 27.4 µM (inactive) | 20 µM (inactive) | > 93.8 µM (inactive) | 27.1 µM (inactive) | > 56 µM (inactive) | > 65 µM (inactive) | > 41.5 µM (inactive) | > 100 µM (inactive) | 17.7 µM (inactive) | > 83 µM (inactive) | > 47.1 µM (inactive) | > 100 µM (inactive) | 48.3 µM (inactive) | > 95.7 µM (inactive) | 25.4 µM (inactive) | 42.9 µM (inactive) | 52.1 µM (inactive) | 24.5 µM (inactive) | 17.5 µM (inactive)
5 | CC1(C)C2C=C(CCN3CCOCC3)CC1C2 (stereo not given) | > 100 µM (inactive) | > 100 µM (inactive) | > 100 µM (inactive) | > 100 µM (inactive) | > 100 µM (inactive) | > 100 µM (inactive) | > 100 µM (inactive) | > 100 µM (inactive) | > 100 µM (inactive) | 15.3 µM (inactive) | > 100 µM (inactive) | > 100 µM (inactive) | > 100 µM (inactive) | > 100 µM (inactive) | 64.9 µM (inactive) | > 100 µM (inactive) | > 100 µM (inactive) | > 100 µM (inactive) | > 100 µM (inactive) | > 100 µM (inactive)
6 | CCCC(c1cc(C(C)(C)C)c(O)cc1C)c1cc(C(C)(C)C)c(O)cc1C | 1.77 µM (inactive) | 1.99 µM (inactive) | 2.6 µM (inactive) | 5.13 µM (inactive) | 2.26 µM (inactive) | 3.32 µM (inactive) | 4.04 µM (inactive) | 3.05 µM (inactive) | 3.2 µM (inactive) | 8.41 µM (inactive) | 4.4 µM (inactive) | 2.4 µM (inactive) | 3.29 µM (inactive) | 3.33 µM (inactive) | 2.3 µM (inactive) | 2.71 µM (inactive) | 2.56 µM (inactive) | 2.65 µM (inactive) | 2.16 µM (inactive) | 2.24 µM (inactive)
7 | CC(=O)O[C@@H]1C(=O)N(c2ccccc2)[C@@H]1c1cc2ccccc2c2ccccc12 | 23.2 µM (inactive) | 15 µM (inactive) | 14.4 µM (inactive) | 20.5 µM (inactive) | 15.5 µM (inactive) | 20.3 µM (inactive) | 21.6 µM (inactive) | 29.6 µM (inactive) | 30.9 µM (inactive) | 20.8 µM (inactive) | 44.3 µM (inactive) | 38 µM (inactive) | 32.9 µM (inactive) | 22.2 µM (inactive) | 7.1 µM (inactive) | 25.6 µM (inactive) | 18.7 µM (inactive) | 20.2 µM (inactive) | 12.3 µM (inactive) | 21.3 µM (inactive)
8 | Cc1ccc(C2(N3CCOCC3)OC(C)(C)c3cccc4cccc2c34)cc1 (stereo not given) | 18.6 µM (inactive) | 15.3 µM (inactive) | 15.6 µM (inactive) | 15.9 µM (inactive) | 35.1 µM (inactive) | 21.1 µM (inactive) | 17.9 µM (inactive) | 15.7 µM (inactive) | 17.3 µM (inactive) | 11.9 µM (inactive) | 14.4 µM (inactive) | 16.9 µM (inactive) | 16.5 µM (inactive) | 16.9 µM (inactive) | 17.1 µM (inactive) | 22.6 µM (inactive) | 21.7 µM (inactive) | 17.7 µM (inactive) | 41.5 µM (inactive) | 16.2 µM (inactive)
9 | Cc1cc(=O)oc2cc(OC(=O)N(CCCl)CCCl)ccc12 | > 100 µM (inactive) | > 100 µM (inactive) | > 100 µM (inactive) | > 100 µM (inactive) | 63.2 µM (inactive) | > 100 µM (inactive) | 94.4 µM (inactive) | > 100 µM (inactive) | > 100 µM (inactive) | 18.2 µM (inactive) | > 100 µM (inactive) | > 100 µM (inactive) | 46.8 µM (inactive) | > 100 µM (inactive) | > 100 µM (inactive) | 90.4 µM (inactive) | 62.4 µM (inactive) | > 100 µM (inactive) | 82.6 µM (inactive) | 61.4 µM (inactive)
10 | COc1cc(-c2oc(/C=N/c3ccccc3)c([N+](=O)[O-])c2-c2ccc(O)c(OC)c2)ccc1O | 23.7 µM (inactive) | 22.8 µM (inactive) | 32.9 µM (inactive) | 19.1 µM (inactive) | 2.86 µM (inactive) | 21.7 µM (inactive) | 15.4 µM (inactive) | 33.8 µM (inactive) | 18 µM (inactive) | 13.8 µM (inactive) | 19.7 µM (inactive) | 31.6 µM (inactive) | 18.7 µM (inactive) | 15.1 µM (inactive) | 26.9 µM (inactive) | 6.31 µM (inactive) | 38.9 µM (inactive) | 16.3 µM (inactive) | 12.2 µM (inactive) | 25.1 µM (inactive)
11 | O=C(O)CCc1nc2ccccc2[nH]1 [PROCODAZOLE] | > 100 µM (inactive) | > 100 µM (inactive) | > 100 µM (inactive) | > 100 µM (inactive) | > 100 µM (inactive) | > 100 µM (inactive) | > 100 µM (inactive) | > 100 µM (inactive) | > 100 µM (inactive) | > 100 µM (inactive) | > 100 µM (inactive) | > 100 µM (inactive) | > 100 µM (inactive) | > 100 µM (inactive) | > 100 µM (inactive) | > 100 µM (inactive) | > 100 µM (inactive) | > 100 µM (inactive) | > 100 µM (inactive) | > 100 µM (inactive)
12 | OC(CC1CCCCN1)c1ccc2c(c1)oc1ccccc12 (stereo not given) | 17.8 µM (inactive) | 57.3 µM (inactive) | 34 µM (inactive) | 94.2 µM (inactive) | 67.3 µM (inactive) | > 100 µM (inactive) | 55.6 µM (inactive) | 91.2 µM (inactive) | 72.1 µM (inactive) | 48.3 µM (inactive) | > 100 µM (inactive) | 99.1 µM (inactive) | 71 µM (inactive) | 37.2 µM (inactive) | 74.5 µM (inactive) | 33.3 µM (inactive) | > 100 µM (inactive) | > 100 µM (inactive) | 28.2 µM (inactive) | 46.1 µM (inactive)
13 | CN(C)c1ccc(/C=C/C(=O)c2cc(C(C)(C)C)c(O)c(C(C)(C)C)c2)cc1 | 0.774 µM (active) | 0.204 µM (active) | 1.08 µM (active) | 1.98 µM (inactive) | 0.546 µM (active) | 0.641 µM (active) | 4.15 µM (inactive) | 2.54 µM (inactive) | 1.23 µM (inactive) | > 100 µM (inactive) | 2.66 µM (inactive) | 0.43 µM (active) | 1.22 µM (inactive) | 1.61 µM (inactive) | 1.85 µM (inactive) | 1.01 µM (active) | 4.06 µM (inactive) | 2.07 µM (inactive) | 3.85 µM (inactive) | 1.55 µM (inactive)
14 | CSc1nc(C#N)c(N)n1C | > 100 µM (inactive) | > 100 µM (inactive) | > 100 µM (inactive) | > 100 µM (inactive) | > 100 µM (inactive) | > 100 µM (inactive) | > 100 µM (inactive) | > 100 µM (inactive) | > 100 µM (inactive) | > 100 µM (inactive) | > 100 µM (inactive) | > 100 µM (inactive) | > 100 µM (inactive) | > 100 µM (inactive) | > 100 µM (inactive) | > 100 µM (inactive) | > 100 µM (inactive) | > 100 µM (inactive) | > 100 µM (inactive) | > 100 µM (inactive)
